# Reference: patent US20230165884A1, “METHOD AND COMPOSITION FOR TREATING ALZHEIMERS” (Cognitive Synergy Corporation, priority 2021, published 2023)
# Columns and labels:
# Aβ1-42 protein = biological target: T1, Aβ1-42 protein (Homo sapiens, UniProt P05067); experiment: Percentage of Aβ1-42 protein fibrillization by ThT fluorescence (FIG. 18, 19); assay type: biochemical; parameters: percentage of Aβ fibrillization compared to the control: unit of the concentration uncertain; details: for effect on Aβ protein aggregation and/or tau protein accumulation: incubated with Aβ1-42 for 24 hours at 37° C.
# T1 construct: aggregated amyloid beta 1-42 (Aβ1-42)
# Method: FIG. 18 is an analysis showing a percentage of Aβ1-42 protein fibrillization using thioflavin T (ThT) florescence in various samples. The sample on the left is a control of Aβ1-42 protein. […] The third sample from the left is Aβ protein treated with 10 mM Aconitine. And the fourth sample from the left is Aβ1-42 protein treated with 20 mM Aconitine.
# FIG. 19 is an analysis showing an amount of Aβ1-42 protein fibrillization using thioflavin T (ThT) fluorescence in various samples. The sample on the left is a control of Aβ1-42 protein. The second sample from the left is Aβ1-42 protein treated with 200 mM of bergenin. The third sample from the left is Aβ1-42 protein treated with 300 mM bergenin.
# The various compounds were incubated with Aβ1-42 for 24 hours at 37° C. to determine the effect of compounds on defibrillation. Further, testing was done to determine an effect of the compounds on tau protein.
# Referring to FIG. 18, FIG. 18 is a bar graph 1800 showing a percentage of Aβ protein fibrillization in various samples. The sample on the left is a control 1805 of Aβ protein. […] The third sample 1815 from the left is Aβ protein treated with 10 mM aconitine. And the fourth sample 1820 from the left is Aβ protein treated with 20 mM aconitine.
# The intensity for the control 1805 is normalized to 100.
# The third sample 1815 includes a concentration of 10 mM aconitine. […] The fourth sample 1820 includes a concentration of 20 mM aconitine.
# Referring to FIG. 19, FIG. 19 is a bar graph 1900 showing an amount of Aβ protein in various samples. The sample on the left is a control 1905 of Aβ protein. The second sample 1910 from the left is Aβ protein treated with 200 mM bergenin. The third sample 1915 from the left is Aβ protein treated with 300 mM bergenin.
# The control 1905 on the left side of the bar graph 1900, which just contains Aβ protein is normalized to 100. The measurement of the percentage of the Aβ protein in the control 1905 that aggregates into Aβ fibrils is compared against solutions containing bergenin.
# The second sample 1910 contains 200 mM bergenin. […] The third sample 1915 contained 300 mM bergenin.
# Aβ = biological target: T2, Aβ (Homo sapiens, UniProt P05067); experiment: Fibrillization assay of various compositions (FIG. 28); assay type: biochemical; details: control 100% fibrillization
# T2 construct: aggregated amyloid beta 1-42 (Aβ1-42)
# Method: (§1) Orientin, vitexin, and bergenin were detected as possible targets based on identification via Liquid Chromatography—mass Spectrometry (LC-MS) from Synaptecx-227 and verified via mass spectrometric (MS) analysis. Aβ1-42 defibrillation analysis and Aβ1-42 cell survival were performed for various combinations of the above identified targets.
# The sample treated with a 20 micromolar concentration of orientin, 20 micromolar concentration of vitexin, and 50 micromolar concentration of bergenin decreased Aβ fibrillization by 48.9989% (p value<0.0001 ****).
# [1] = tested on: neurons with Aβ treatment; experiment: Cell survival assay of various compositions (FIG. 29); assay type: cell-based; details: Aβ control 61.7592%
# Method: as §1
# In the control sample with Aβ treatment, the % of surviving neurons is 61.7592% (p value<0.0001 ****).
# T2 sequence (P05067 672-713): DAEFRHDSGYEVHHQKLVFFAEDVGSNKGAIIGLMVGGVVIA
# T1 sequence (P05067 672-713): as above
Molecule,effect on Aβ protein aggregation and/or tau protein accumulation (Aβ1-42 protein),decrease of Aβ fibrillization (Aβ; 20 micromolar),cell survival ([1]; 20 micromolar),other results
CCN1C[C@]2(COC)[C@H](O)C[C@H](OC)[C@@]34[C@@H]5C[C@@]6(O)[C@H](OC(=O)c7ccccc7)[C@@H]5[C@@](OC(C)=O)([C@@H]([C@H](OC)[C@H]23)[C@@H]14)[C@@H](O)[C@@H]6OC [aconitine],reducing a percentage of Aβ protein aggregation as compared to a control and/or reducing a percentage of tau protein accumulation as compared to a control,–,–,percentage of Aβ fibrillization compared to the control (Aβ1-42 protein; 10 (unit uncertain)): 82.0%; percentage of Aβ fibrillization compared to the control (Aβ1-42 protein; 20 (unit uncertain)): 74.8%
O=C(N[C@@H](Cc1ccccc1)C(=O)N[C@H](CO)Cc1ccccc1)c1ccccc1 [aurantiamide],–,24.8578%,–,cell survival ([1]; 10 micromolar): 71.5173%
COc1c(O)cc2c(c1O)[C@@H]1O[C@H](CO)[C@@H](O)[C@H](O)[C@H]1OC2=O [bergenin],reducing a percentage of Aβ protein aggregation as compared to a control and/or reducing a percentage of tau protein accumulation as compared to a control,–,–,decrease of Aβ fibrillization (Aβ; 50 micromolar): 31.9532%; cell survival ([1]; 50 micromolar): 76.2308%
O=c1cc(-c2ccc(O)c(O)c2)oc2c([C@@H]3O[C@H](CO)[C@@H](O)[C@H](O)[C@H]3O)c(O)cc(O)c12 [orientin],–,29.2843%,77.8195%,–
O=c1cc(-c2ccc(O)cc2)oc2c([C@@H]3O[C@H](CO)[C@@H](O)[C@H](O)[C@H]3O)c(O)cc(O)c12 [vitexin],–,28.8579%,73.4208%,–
swatinine,reducing a percentage of Aβ protein aggregation as compared to a control and/or reducing a percentage of tau protein accumulation as compared to a control,–,–,–
